IC50 data for 13 compounds are collected here from PubChem BioAssay AID651581 (Sanford-Burnham Center for Chemical Genomics, 2012).

Molecules are shown by their SMILES. Active and inactive are the calls of the source. No rule for the calls is given here.

Assay [1] deals with Hypoxia-inducible factor 1-alpha (Homo sapiens) (UniProt Q16665). The assay can be described thus: potency against HIF reporters across cell lines – luminescence, panel, selectivity assay for HIF-2a inhibitor project, dose response (AID 651581). As to conditions: human cell HIF reporter, HIF-1a.
Chain of Hypoxia-inducible factor 1-alpha (Homo sapiens) (Q16665 whole entry, looked up, the tested form may be a part): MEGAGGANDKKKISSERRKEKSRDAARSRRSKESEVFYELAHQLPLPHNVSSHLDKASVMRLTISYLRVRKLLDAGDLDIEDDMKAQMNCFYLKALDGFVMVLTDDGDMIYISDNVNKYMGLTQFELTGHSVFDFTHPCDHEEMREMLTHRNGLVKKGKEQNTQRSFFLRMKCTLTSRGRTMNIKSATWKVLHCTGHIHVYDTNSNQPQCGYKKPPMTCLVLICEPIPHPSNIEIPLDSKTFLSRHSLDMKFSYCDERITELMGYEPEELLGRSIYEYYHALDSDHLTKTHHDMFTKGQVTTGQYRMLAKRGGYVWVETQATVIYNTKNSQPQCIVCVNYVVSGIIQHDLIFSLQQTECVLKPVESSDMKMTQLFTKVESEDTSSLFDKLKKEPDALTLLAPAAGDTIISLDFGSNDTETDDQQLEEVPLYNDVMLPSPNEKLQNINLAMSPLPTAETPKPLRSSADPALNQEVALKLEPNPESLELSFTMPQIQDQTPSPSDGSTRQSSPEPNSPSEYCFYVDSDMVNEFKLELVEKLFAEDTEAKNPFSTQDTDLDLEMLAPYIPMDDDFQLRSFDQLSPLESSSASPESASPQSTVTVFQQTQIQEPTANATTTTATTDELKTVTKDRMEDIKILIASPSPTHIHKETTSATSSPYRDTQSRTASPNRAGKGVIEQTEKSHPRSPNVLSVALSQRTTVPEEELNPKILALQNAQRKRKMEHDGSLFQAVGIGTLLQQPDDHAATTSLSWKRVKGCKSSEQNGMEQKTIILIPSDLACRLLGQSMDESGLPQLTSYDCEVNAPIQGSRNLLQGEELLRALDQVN
Assay [2] deals with Endothelial PAS domain-containing protein 1 (Homo sapiens) (UniProt Q99814). The assay is described as above. As to conditions: human cell HIF reporter.

For orientation: IC50 means the concentration at which inhibition is half-maximal. Consider `COc1ccc(/C=N\n2nnc3ccccc32)cc1`, for which the IC50 in assay [1] (mean of runs) is < 30 µM (inactive); in assay [1] (run 1) it was less than 30 µM; in assay [1] (run 2) it was less than 30 µM; in assay [2] (HIF-2a PANC, mean of runs), 7.03 µM; in assay [2] (HIF-2a PANC, run 1), 7.48 µM; in assay [2] (HIF-2a PANC, run 2) it was 6.58 µM. In addition, the IC50 in assay [2] (HIF-2a, mean of runs) was < 30 µM (inactive); in assay [2] (HIF-2a, run 1) it was less than 30 µM; in assay [2] (HIF-2a, run 2), less than 30 µM.

As for `O=C(O)c1cccc(N/N=C/c2cccs2)c1`, the IC50 in assay [1] (run 1) is greater than 99 µM; in assay [1] (run 2) it was greater than 99 µM; in assay [2] (HIF-2a PANC, run 1), greater than 99 µM; in assay [2] (HIF-2a PANC, run 2), 45.8 µM; in assay [2] (HIF-2a, mean of runs), 5.74 µM; in assay [2] (HIF-2a, run 1), 5.56 µM. In assay [2] (HIF-2a, run 2), this compound yielded a 50% inhibitory concentration (IC50) of 5.91 µM.

For the compound `CCC(=O)Nc1cccc(C(=O)c2ccc(C)c(C)c2)c1`, the IC50 in assay [1] (run 1) was greater than 99 µM; in assay [1] (run 2), 38.7 µM; in assay [2] (HIF-2a PANC, run 1), greater than 99 µM; in assay [2] (HIF-2a PANC, run 2), greater than 99 µM; in assay [2] (HIF-2a, run 1), greater than 99 µM; in assay [2] (HIF-2a, run 2), 1.57 µM.

As for `CCS(=O)(=O)c1ncc(Cl)c(C(=O)Nc2ccc(C)cc2)n1`, the IC50 result in assay [1] (mean of runs) is “inactive”; in assay [2] (HIF-2a, mean of runs), “inactive”. In addition, the IC50 in assay [1] (run 1) is 23.9 µM; in assay [1] (run 2), 20 µM; in assay [2] (HIF-2a PANC, mean of runs), 30.5 µM; in assay [2] (HIF-2a PANC, run 1), 30.4 µM; in assay [2] (HIF-2a PANC, run 2) it was 30.7 µM; in assay [2] (HIF-2a, run 1), 10.8 µM. For the same compound, in assay [2] (HIF-2a, run 2), the IC50 came out at 9.79 µM.

`Cc1cc(NC(=O)c2ccccc2)c(Cl)cc1N`: the IC50 in assay [1] (mean of runs) was 11.5 µM; in assay [1] (run 1), 10 µM; in assay [1] (run 2), 12.9 µM; in assay [2] (HIF-2a PANC, run 1), 10.1 µM; in assay [2] (HIF-2a PANC, run 2) it was 19.5 µM; in assay [2] (HIF-2a, mean of runs) it was 2.75 µM. Also, the IC50 was 2.56 µM in assay [2] (HIF-2a, run 1) and 2.94 µM in assay [2] (HIF-2a, run 2). For the same compound, in assay [2] (HIF-2a PANC, mean of runs), the IC50 result is “inactive”.

On to `O=C(OCC(F)(F)F)c1cccc(COc2ccc3ccccc3c2)c1`, for which the IC50 in assay [1] (run 1) is greater than 99 µM; in assay [1] (run 2), greater than 99 µM; in assay [2] (HIF-2a PANC, run 1) it was greater than 99 µM; in assay [2] (HIF-2a PANC, run 2) it was less than 30 µM; in assay [2] (HIF-2a, mean of runs), 2.86 µM; in assay [2] (HIF-2a, run 1), 2.92 µM. This compound also yielded an IC50 in assay [2] (HIF-2a, run 2) of 2.79 µM.

With `CC(=O)N/N=C\c1cccc(OC/C=C/c2ccccc2)c1`, the IC50 in assay [1] (run 1) was greater than 99 µM; in assay [1] (run 2) it was greater than 99 µM; in assay [2] (HIF-2a PANC, mean of runs) it was > 99 µM (inactive); in assay [2] (HIF-2a PANC, run 1), greater than 99 µM; in assay [2] (HIF-2a PANC, run 2), greater than 99 µM; in assay [2] (HIF-2a, mean of runs) it was less than 10 µM. The IC50 in assay [2] (HIF-2a, run 1) is less than 10 µM; in assay [2] (HIF-2a, run 2) it was less than 30 µM.

For `O=c1[nH]c2ccc(Br)cc2c(=O)o1`, the IC50 in assay [1] (run 1) is greater than 99 µM; in assay [1] (run 2), 20 µM; in assay [2] (HIF-2a PANC, mean of runs), 47.5 µM; in assay [2] (HIF-2a PANC, run 1), 36.4 µM; in assay [2] (HIF-2a PANC, run 2), 58.6 µM; in assay [2] (HIF-2a, run 1), 19.3 µM. Besides, in assay [2] (HIF-2a, run 2), the IC50 was 20 µM. In addition, in assay [2] (HIF-2a, mean of runs), the IC50 result was “inactive”.

In the case of `NNC(=O)c1cccc(COc2ccc3c(c2)CCC3)c1`, the half-inhibitory concentration (IC50) in assay [1] (run 1) is greater than 99 µM; in assay [1] (run 2), greater than 99 µM; in assay [2] (HIF-2a PANC, mean of runs), > 99 µM (inactive); in assay [2] (HIF-2a PANC, run 1), greater than 99 µM; in assay [2] (HIF-2a PANC, run 2) it was greater than 99 µM; in assay [2] (HIF-2a, mean of runs), < 30 µM (inactive). Further, the IC50 was less than 30 µM in assay [2] (HIF-2a, run 1) and less than 30 µM in assay [2] (HIF-2a, run 2).

Regarding `CC(=O)Nc1ccc(NC(=O)c2oc3cc(C)c(C)cc3c2C)cc1`, in assay [1] (mean of runs), the IC50 entry was “inactive”. The IC50 in assay [1] (run 1) was 2.91 µM; in assay [1] (run 2) it was 1.65 µM; in assay [2] (HIF-2a PANC, run 1) it was greater than 99 µM; in assay [2] (HIF-2a PANC, run 2), 16.5 µM; in assay [2] (HIF-2a, mean of runs), 1.64 µM; in assay [2] (HIF-2a, run 1), 1.62 µM. Further, the IC50 in assay [2] (HIF-2a, run 2) came to 1.67 µM.

For the compound `Cc1ccc(S(=O)(=O)Nc2cccc3cccnc23)cc1`, the IC50 is greater than 99 µM in assay [1] (run 1); greater than 99 µM in assay [1] (run 2); > 99 µM (inactive) in assay [2] (HIF-2a PANC, mean of runs); greater than 99 µM in assay [2] (HIF-2a PANC, run 1); greater than 99 µM in assay [2] (HIF-2a PANC, run 2); 1.12 µM in assay [2] (HIF-2a, mean of runs). The IC50 in assay [2] (HIF-2a, run 1) is 1.15 µM; in assay [2] (HIF-2a, run 2), 1.09 µM.

Consider `CS(=O)(=O)c1ccc(-c2cn3cc(C(=O)O)ccc3n2)cc1`, for which the IC50 in assay [1] (mean of runs) was > 99 µM (inactive); in assay [1] (run 1) it was greater than 99 µM; in assay [1] (run 2), greater than 99 µM; in assay [2] (HIF-2a PANC, run 1), 86.7 µM; in assay [2] (HIF-2a PANC, run 2), greater than 99 µM; in assay [2] (HIF-2a, run 1), 28.8 µM. Further, in assay [2] (HIF-2a, run 2), the IC50 turned out to be 47.2 µM. Also, in assay [2] (HIF-2a, mean of runs), the IC50 result was “inactive”.

With `Cc1ccc(NC(=O)c2cc(N3C(=O)C=CC3=O)ccc2N2CCOCC2)cc1Cl`, the IC50 in assay [1] (mean of runs) is 49.8 µM; in assay [1] (run 1), 60.4 µM; in assay [1] (run 2) it was 39.3 µM; in assay [2] (HIF-2a PANC, run 1), 76.3 µM; in assay [2] (HIF-2a PANC, run 2), greater than 99 µM; in assay [2] (HIF-2a, mean of runs), 5.36 µM. Also, the half-maximal inhibitory concentration (IC50) in assay [2] (HIF-2a, run 1) stood at 5.12 µM; in assay [2] (HIF-2a, run 2) it was 5.61 µM.
